Source: ChEMBL document CHEMBL3885881, “DrugMatrix”

Species on record: Rattus norvegicus
Test: DrugMatrix - Regimen: Daily Repeat
Format: toxicity, organism-based, Sprague-Dawley
Set-up: regimen Daily Repeat, gender Male, age 6-8 weeks
Details: in vivo, po, route oral GAVAGE, […]; for ABSOLUTE BASOPHIL / ABSOLUTE EOSINOPHIL / ABSOLUTE LYMPHOCYTE / ABSOLUTE MONOCYTE / ABSOLUTE SEGMENTED NEUTROPHIL / BASOPHIL / EOSINOPHIL / ERYTHROCYTE COUNT / HEMATOCRIT / HEMOGLOBIN / LEUKOCYTE COUNT / LYMPHOCYTE / MEAN CORPUSCULAR HEMOGLOBIN / MEAN CORPUSCULAR HEMOGLOBIN CONCENTRATION / MEAN CORPUSCULAR VOLUME / MONOCYTE / NEUTROPHIL / NUCLEATED RED BLOOD CELLS / PLATELET COUNT: tissue Blood; for ALANINE AMINOTRANSFERASE / ALBUMIN / ALKALINE PHOSPHATASE / ASPARTATE AMINOTRANSFERASE / BLOOD UREA NITROGEN / CARBON DIOXIDE / CHLORIDE / CHOLESTEROL / CREATINE PHOSPHOKINASE / CREATININE / GLUCOSE / LACTATE DEHYDROGENASE / LIPASE / PHOSPHORUS / SODIUM / TOTAL BILIRUBIN / TOTAL PROTEIN / URIC ACID: tissue Plasma
[1] = 450 mg/kg, 120 h, dose level Low, time 5 day
[2] = 1500 mg/kg, 72 h, dose level High, time 3 day
[3] = 1500 mg/kg, 120 h, dose level High, time 5 day

CC[C@H](C)C(=O)O[C@H]1C[C@@H](C)C=C2C=C[C@H](C)[C@H](CC[C@@H]3C[C@@H](O)CC(=O)O3)[C@H]21 [LOVASTATIN]
ABSOLUTE BASOPHIL [1]: 0 CELLS/uL
ABSOLUTE EOSINOPHIL [1]: 0 CELLS/uL
ABSOLUTE LYMPHOCYTE [1]: 8158 CELLS/uL
ABSOLUTE MONOCYTE [1]: 134 CELLS/uL
ABSOLUTE SEGMENTED NEUTROPHIL [1]: 1208 CELLS/uL
BASOPHIL [1]: 0%
EOSINOPHIL [1]: 0%
ERYTHROCYTE COUNT [1]: 6.46 x10E6/uL
HEMATOCRIT [1]: 40.17%
HEMOGLOBIN [1]: 15.27 G/DL
LEUKOCYTE COUNT [1]: 9.5 x10E3/uL
LYMPHOCYTE [1]: 86%
MEAN CORPUSCULAR HEMOGLOBIN [1]: 23.63 pg
MEAN CORPUSCULAR HEMOGLOBIN CONCENTRATION [1]: 38.03 G/DL
MEAN CORPUSCULAR VOLUME [1]: 62.2 fL
MONOCYTE [1]: 1.33%
NEUTROPHIL [1]: 12.67%
NUCLEATED RED BLOOD CELLS [1]: 0 /100WBC
PLATELET COUNT [1]: 1425.67 x10E3/uL
ALANINE AMINOTRANSFERASE [1]: 153 u/L
ALBUMIN [1]: 4.83 G/DL
ALKALINE PHOSPHATASE [1]: 635.67 u/L
ASPARTATE AMINOTRANSFERASE [1]: 360.33 u/L
BLOOD UREA NITROGEN [1]: 15.33 mg/dL
CARBON DIOXIDE [1]: 35.67 mmol/L
CHLORIDE [1]: 100.5 MEQ/L
CHOLESTEROL [1]: 28.67 mg/dL
CREATINE PHOSPHOKINASE [1]: 410.33 u/L
CREATININE [1]: 0.31 mg/dL
GLUCOSE [1]: 137.33 mg/dL
LACTATE DEHYDROGENASE [1]: 182.33 u/L
LIPASE [1]: 15.33 u/L
PHOSPHORUS [1]: 8.7 mg/dL
SODIUM [1]: 145.2 MEQ/L
TOTAL BILIRUBIN [1]: 0.23 mg/dL
TOTAL PROTEIN [1]: 6.1 G/DL
URIC ACID [1]: 0.5 mg/dL
ABSOLUTE BASOPHIL [2]: 0 CELLS/uL
ABSOLUTE EOSINOPHIL [2]: 21.67 CELLS/uL
ABSOLUTE LYMPHOCYTE [2]: 6143.33 CELLS/uL
ABSOLUTE MONOCYTE [2]: 201 CELLS/uL
ABSOLUTE SEGMENTED NEUTROPHIL [2]: 2134 CELLS/uL
BASOPHIL [2]: 0%
EOSINOPHIL [2]: 0.33%
ERYTHROCYTE COUNT [2]: 5.62 x10E6/uL
HEMATOCRIT [2]: 35.1%
HEMOGLOBIN [2]: 13.97 G/DL
LEUKOCYTE COUNT [2]: 8.5 x10E3/uL
LYMPHOCYTE [2]: 72%
MEAN CORPUSCULAR HEMOGLOBIN [2]: 24.9 pg
MEAN CORPUSCULAR HEMOGLOBIN CONCENTRATION [2]: 39.83 G/DL
MEAN CORPUSCULAR VOLUME [2]: 62.5 fL
MONOCYTE [2]: 2.33%
NEUTROPHIL [2]: 25.33%
NUCLEATED RED BLOOD CELLS [2]: 0 /100WBC
PLATELET COUNT [2]: 1031.67 x10E3/uL
ALANINE AMINOTRANSFERASE [2]: 318 u/L
ALBUMIN [2]: 4.3 G/DL
ALKALINE PHOSPHATASE [2]: 538.67 u/L
ASPARTATE AMINOTRANSFERASE [2]: 602.33 u/L
BLOOD UREA NITROGEN [2]: 15.33 mg/dL
CARBON DIOXIDE [2]: 30.33 mmol/L
CHLORIDE [2]: 98 MEQ/L
CHOLESTEROL [2]: 50 mg/dL
CREATINE PHOSPHOKINASE [2]: 490 u/L
CREATININE [2]: 0.37 mg/dL
GLUCOSE [2]: 141.67 mg/dL
LACTATE DEHYDROGENASE [2]: 851.33 u/L
LIPASE [2]: 10.33 u/L
PHOSPHORUS [2]: 10.3 mg/dL
SODIUM [2]: 142.63 MEQ/L
TOTAL BILIRUBIN [2]: 0.1 mg/dL
TOTAL PROTEIN [2]: 5.53 G/DL
URIC ACID [2]: 0.7 mg/dL
ABSOLUTE BASOPHIL [3]: 0 CELLS/uL
ABSOLUTE EOSINOPHIL [3]: 0 CELLS/uL
ABSOLUTE LYMPHOCYTE [3]: 8899 CELLS/uL
ABSOLUTE MONOCYTE [3]: 314.33 CELLS/uL
ABSOLUTE SEGMENTED NEUTROPHIL [3]: 2320 CELLS/uL
BASOPHIL [3]: 0%
EOSINOPHIL [3]: 0%
ERYTHROCYTE COUNT [3]: 6.78 x10E6/uL
HEMATOCRIT [3]: 41.27%
HEMOGLOBIN [3]: 15.53 G/DL
LEUKOCYTE COUNT [3]: 11.53 x10E3/uL
LYMPHOCYTE [3]: 76%
MEAN CORPUSCULAR HEMOGLOBIN [3]: 22.93 pg
MEAN CORPUSCULAR HEMOGLOBIN CONCENTRATION [3]: 37.63 G/DL
MEAN CORPUSCULAR VOLUME [3]: 60.93 fL
MONOCYTE [3]: 2.67%
NEUTROPHIL [3]: 21.33%
NUCLEATED RED BLOOD CELLS [3]: 0 /100WBC
PLATELET COUNT [3]: 1526.33 x10E3/uL
ALANINE AMINOTRANSFERASE [3]: 234.33 u/L
ALBUMIN [3]: 4.7 G/DL
ALKALINE PHOSPHATASE [3]: 440.67 u/L
ASPARTATE AMINOTRANSFERASE [3]: 648.33 u/L
BLOOD UREA NITROGEN [3]: 17 mg/dL
CARBON DIOXIDE [3]: 35.67 mmol/L
CHLORIDE [3]: 100.5 MEQ/L
CHOLESTEROL [3]: 55.33 mg/dL
CREATINE PHOSPHOKINASE [3]: 603 u/L
CREATININE [3]: 0.34 mg/dL
GLUCOSE [3]: 135 mg/dL
LACTATE DEHYDROGENASE [3]: 832.33 u/L
LIPASE [3]: 14.67 u/L
PHOSPHORUS [3]: 8.5 mg/dL
SODIUM [3]: 145.6 MEQ/L
TOTAL BILIRUBIN [3]: 0.2 mg/dL
TOTAL PROTEIN [3]: 6.33 G/DL
URIC ACID [3]: 0.63 mg/dL
